Results as given in PMC2229644 (The Journal of General Physiology, 1999).

Legend:
potassium channels = settings: cited from earlier work
[1] = system: MaxiK-channel (large conductance Ca-activated K channel); settings: cited from earlier work
[2] = system: Shaker K channel, inactivation-removed; settings: cited from earlier work
[3] = molecular target: Shaker H4 Δ(6-46) K channel (inactivation-removed, Shaker IR) (Drosophila melanogaster, UniProt P08510, DEL6-46); assay type: cell-based
Sequence of Shaker H4 Δ(6-46) K channel (inactivation-removed, Shaker IR) (P08510 1-655 with tags or gaps DEL6-46): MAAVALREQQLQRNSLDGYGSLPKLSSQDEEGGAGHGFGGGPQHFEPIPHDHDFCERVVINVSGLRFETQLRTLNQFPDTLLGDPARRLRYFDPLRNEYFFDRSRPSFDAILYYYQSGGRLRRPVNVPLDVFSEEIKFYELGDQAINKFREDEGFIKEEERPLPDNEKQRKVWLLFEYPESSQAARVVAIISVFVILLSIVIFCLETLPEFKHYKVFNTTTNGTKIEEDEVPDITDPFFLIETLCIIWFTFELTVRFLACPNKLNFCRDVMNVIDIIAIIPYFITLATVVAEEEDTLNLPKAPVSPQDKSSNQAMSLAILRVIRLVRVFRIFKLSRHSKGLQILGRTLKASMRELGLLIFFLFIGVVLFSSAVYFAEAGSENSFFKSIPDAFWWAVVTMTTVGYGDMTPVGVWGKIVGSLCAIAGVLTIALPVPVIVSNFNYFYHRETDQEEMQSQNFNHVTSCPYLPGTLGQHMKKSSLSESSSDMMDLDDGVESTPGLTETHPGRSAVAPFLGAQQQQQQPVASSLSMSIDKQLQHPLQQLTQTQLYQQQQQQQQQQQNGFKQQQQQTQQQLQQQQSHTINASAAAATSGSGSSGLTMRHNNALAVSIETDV

Row | Substance | association rate constant, k on (potassium channels) [M⁻¹ s⁻¹] | effective valence zδ in absence of internally present permeant cations [1] | effect of external TEA^+ on extent of κ-PVIIA blockade [2] | effect on apparent association rate of κ-PVIIA [3] | effect on dissociation rate of κ-PVIIA [3] | underestimation of κ-PVIIA k on by 1 mM TEA^+ [3] [%] | effect of TEA^+ on CTX association and dissociation rates [1]
1 | charybdotoxin [CTX] | 6.1e+07 | zδ vanishes | – | – | – | – | –
2 | tetraethylammonium [TEA^+] | – | – | reduces the extent of the blockade | decreases the apparent association rate | little effect on the dissociation rate | ~10 | only reduces the association rate of CTX
